US8795679B2, “Pharmaceutical and cosmetic use of extracts from algae obtainable from saline hot water sources” (Blaa Lonid Hf, priority 2006, dated 2014)

Test system: differentiation markers involucrin, transglutaminase-1, filaggrin, and loricrin in human epidermal keratinocytes
Test: Induction of differentiation markers in human epidermal keratinocytes (real time RT-PCR)
Format: cell-based
Details: especially at the early time point, 24 h post addition of the tested substance
Experimental: The effect of the extracts obtained in Examples 1 and 2 on the differentiation markers involucrin, transglutaminase-1, filaggrin, and loricrin in human epidermal keratinocytes has been assessed. As control a ceramide mix (10 μM) was used to induce the differentiation markers.
Long term cultured normal human epidermal keratinocytes, NHEK, prepared from neonatal foreskin are cultured in Keratinocyte SFM (Invitrogen, Heidelberg, Germany) supplemented with bovine pituitary extract (Invitrogen, Heidelberg, Germany) and recombinant epidermal growth factor (Invitrogen, Heidelberg, Germany). Cells are propagated up to passage 2 or 3 at 37° C. and 5% CO2. For induction of differentiation NHEKs are seeded in 6-well plates and grown up to confluence and treated with several concentrations of the algae extracts.
Total RNA was isolated using RNeasy Total RNA Kits (Qiagen, Hilden, Germany). The RNA concentration was determined via photometric measurement at 260/280 (Biophotometer, Eppendorf A G, Hamburg, Germany). An aliquot of 100 ng RNA was used for cDNA synthesis. […]
PCR reactions were carried out on an Opticon 1 (MJ Research, Waltham, Mass., USA) using SYBR Green® PCR Master Mix (Applied Biosystems, Darmstadt, Germany). Each sample was analyzed in double employing the universal protocol over 36 cycles. […]

expression of the differentiation markers involucrin, filaggrin and transglutaminase-1 (silica samples): substantial up-regulation
Compound: O=[Si]([O-])[O-].[Na+].[Na+] [sodium metasilicate]
